Values joined by “and” are separate entries in the source; they are usually repeats but may differ in a detail not shown here. Identical values can stand only once. Toxic doses and inconclusive results are not listed. No stated cut-off is given here; in the data, active means T/C of 150% or more; inactive means T/C below 125%.
Tested on: L1210 leukemia ip in BDF1 mice, survival T/C
Assay: NCI In Vivo Anticancer Drug Screen. Data for tumor model L1210 Leukemia (intraperitoneal) in B6D2F1 (BDF1) mice
Settings: endpoint: mean survival time, higher = longer survival
Summary of the method: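 Ratio derived from survival: compound-dosed mice over vehicle-dosed mice, all bearing a transplantable tumor.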

[1] = dose: 50.0 mg/kg/injection, schedule: Q01DX009 (ip), vehicle: Klucel (hydroxypropylcellulose) (HPC)
[2] = dose: 100.0 mg/kg/injection, schedule: Q01DX009 (ip), vehicle: Klucel (hydroxypropylcellulose) (HPC)
[3] = dose: 100.0 mg/kg/injection, schedule: Q04DX003 (ip), vehicle: Klucel (hydroxypropylcellulose) (HPC)
[4] = dose: 200.0 mg/kg/injection, schedule: Q01DX009 (ip), vehicle: Klucel (hydroxypropylcellulose) (HPC)
[5] = dose: 200.0 mg/kg/injection, schedule: Q04DX003 (ip), vehicle: Klucel (hydroxypropylcellulose) (HPC)
[6] = dose: 400.0 mg/kg/injection, schedule: Q01DX009 (ip), vehicle: Klucel (hydroxypropylcellulose) (HPC)
[7] = dose: 400.0 mg/kg/injection, schedule: Q04DX003 (ip), vehicle: Klucel (hydroxypropylcellulose) (HPC)
[8] = dose: 100.0 mg/kg/injection, schedule: Q01DX001 (ip), vehicle: Klucel (hydroxypropylcellulose) (HPC)
[9] = dose: 200.0 mg/kg/injection, schedule: Q01DX001 (ip), vehicle: Klucel (hydroxypropylcellulose) (HPC)
[10] = dose: 400.0 mg/kg/injection, schedule: Q01DX001 (ip), vehicle: Klucel (hydroxypropylcellulose) (HPC)
[11] = dose: 100.0 mg/kg/injection, schedule: Q04DX002 (ip), vehicle: Klucel (hydroxypropylcellulose) (HPC)
[12] = dose: 200.0 mg/kg/injection, schedule: Q04DX002 (ip), vehicle: Klucel (hydroxypropylcellulose) (HPC)
[13] = dose: 400.0 mg/kg/injection, schedule: Q04DX002 (ip), vehicle: Klucel (hydroxypropylcellulose) (HPC)
[14] = dose: 100.0 mg/kg/injection, schedule: Q01DX001 (ip), vehicle: saline
[15] = dose: 200.0 mg/kg/injection, schedule: Q01DX001 (ip), vehicle: saline
[16] = dose: 50.0 mg/kg/injection, schedule: Q01DX001 (ip), vehicle: saline
[17] = dose: 400.0 mg/kg/injection, schedule: Q01DX001 (ip), vehicle: saline
[18] = dose: 25.0 mg/kg/injection, schedule: Q04DX003 (ip), vehicle: saline with Tween-80
[19] = dose: 50.0 mg/kg/injection, schedule: Q04DX003 (ip), vehicle: saline with Tween-80
[20] = dose: 100.0 mg/kg/injection, schedule: Q01DX009 (ip), vehicle: saline with Tween-80
[21] = dose: 100.0 mg/kg/injection, schedule: Q04DX003 (ip), vehicle: saline with Tween-80
[22] = dose: 200.0 mg/kg/injection, schedule: Q01DX009 (ip), vehicle: saline with Tween-80
[23] = dose: 200.0 mg/kg/injection, schedule: Q04DX003 (ip), vehicle: saline with Tween-80
[24] = dose: 400.0 mg/kg/injection, schedule: Q04DX003 (ip), vehicle: saline with Tween-80
[25] = dose: 25.0 mg/kg/injection, schedule: Q04DX003 (ip), vehicle: Klucel (hydroxypropylcellulose) (HPC)
[26] = dose: 50.0 mg/kg/injection, schedule: Q04DX003 (ip), vehicle: Klucel (hydroxypropylcellulose) (HPC)

Measured: T/C

CN(C)N=Nc1ccccc1C#N
inactive: [1] 103 % of control | [2] 108 % of control | [3] 112 % of control | [4] 113 % of control | [5] 113 % of control | [6] 105 % of control and 120 % of control | [7] 107 % of control

O=C(NCCCl)NCC1CCCCO1 (stereo not drawn)
inactive: [8] 100 % of control | [2] 108 % of control | [9] 98 % of control | [4] 108 % of control | [10] 86 % of control | [6] 101 % of control

CCOC(=S)Nc1ccccc1
inactive: [11] 103 % of control | [12] 90 % of control | [13] 107 % of control

Nc1ncnc2nc(I)[nH]c12
inactive: [14] 93 % of control | [15] 98 % of control

O=C(O)CCC1CCC(=O)NC1=O (stereo not drawn)
inactive: dose: 25.0 mg/kg/injection, schedule: Q04DX002 (ip), vehicle: Klucel (hydroxypropylcellulose) (HPC) 95 % of control | dose: 50.0 mg/kg/injection, schedule: Q04DX002 (ip), vehicle: Klucel (hydroxypropylcellulose) (HPC) 101 % of control | [11] 89 % of control | [12] 103 % of control | [13] 88 % of control

Cc1ccc(C)c(NC(=O)Nc2ccc(Nc3ccccc3)cc2)c1
inactive: [2] 88 % of control | [6] 91 % of control

CSCCc1ccccn1
inactive: [16] 98 % of control | [14] 104 % of control | [15] 98 % of control | [17] 110 % of control

CC1(Br)OC(=O)C(C)(Br)OC1=O (stereo not drawn)
inactive: dose: 100.0 mg/kg/injection, schedule: Q04DX003 (ip), vehicle: saline 96 % of control | dose: 200.0 mg/kg/injection, schedule: Q04DX003 (ip), vehicle: saline 96 % of control

CCNC(=O)NCc1ccc(C)cc1
inactive: [11] 102 % of control | [12] 105 % of control | [13] 112 % of control

CCOc1ccc(Nc2cc([N+](=O)[O-])ccc2C(=O)O)cc1
inactive: [18] 101 % of control | dose: 50.0 mg/kg/injection, schedule: Q01DX009 (ip), vehicle: saline with Tween-80 103 % of control | [19] 95 % of control | [20] 109 % of control | [21] 107 % of control | [22] 98 % of control | [23] 93 % of control

COc1cccc(CN(C)C)c1C(C)(C)O
inactive: [16] 97 % of control | [14] 95 % of control

O=C(O)CC(Br)CBr (stereo not drawn)
inactive: [14] 94 % of control | [15] 103 % of control

Cc1cc(C)c(C(=O)Oc2ccc3ccccc3c2)c(C)c1
inactive: [21] 92 % of control | [23] 92 % of control | [24] 86 % of control

CCOC(OCC)c1cc[n+](CCc2ccc(OC)c(OC)c2)cc1
inactive: dose: 25.0 mg/kg/injection, schedule: Q01DX009 (ip), vehicle: saline 101 % of control | [18] 95 % of control | dose: 50.0 mg/kg/injection, schedule: Q01DX009 (ip), vehicle: saline 101 % of control | [19] 88 % of control | dose: 100.0 mg/kg/injection, schedule: Q01DX009 (ip), vehicle: saline 98 % of control | [21] 95 % of control

CCN(CC)C(=O)c1c(Cl)n(C)c2ccccc12
inactive: dose: 12.5 mg/kg/injection, schedule: Q04DX003 (ip), vehicle: Klucel (hydroxypropylcellulose) (HPC) 95 % of control | [25] 104 % of control | [26] 104 % of control

CC1(C)OC2OC(C(O)c3cn(-c4ccccc4)nn3)C(O)C2O1 (stereo not drawn)
inactive: dose: 100.0 mg/kg/injection, schedule: Q04DX002 (ip), vehicle: saline with Tween-80 97 % of control | dose: 200.0 mg/kg/injection, schedule: Q04DX002 (ip), vehicle: saline with Tween-80 93 % of control | dose: 400.0 mg/kg/injection, schedule: Q04DX002 (ip), vehicle: saline with Tween-80 110 % of control

CSC(c1ccccc1)=[N+]1CCOCC1
inactive: dose: 50.0 mg/kg/injection, schedule: Q01DX009 (ip), vehicle: saline sonified 100 % of control | dose: 100.0 mg/kg/injection, schedule: Q01DX009 (ip), vehicle: saline sonified 94 % of control | [3] 102 % of control | dose: 200.0 mg/kg/injection, schedule: Q01DX009 (ip), vehicle: saline sonified 100 % of control | [5] 98 % of control

Nc1ccc2c(=O)[nH][nH]c(=O)c2c1
inactive: [20] 98 % of control | [22] 98 % of control | dose: 400.0 mg/kg/injection, schedule: Q01DX009 (ip), vehicle: saline with Tween-80 95 % of control

N#CC(C#N)c1ccc(C(C#N)C#N)cc1
inactive: [16] 103 % of control | [14] 122 % of control | [15] 103 % of control

Cc1ccc(-n2c(O)c(N=Nc3ccccc3C)c(=O)n(-c3ccccc3)c2=S)cc1
inactive: [8] 94 % of control | [9] 104 % of control | [10] 99 % of control

C(=NC1CCCCC1)=NC1CCCCC1
inactive: dose: 2.5 mg/kg/injection, schedule: Q04DX003 (ip), vehicle: Klucel (hydroxypropylcellulose) (HPC) 105 % of control | dose: 5.0 mg/kg/injection, schedule: Q04DX003 (ip), vehicle: Klucel (hydroxypropylcellulose) (HPC) 105 % of control | dose: 10.0 mg/kg/injection, schedule: Q04DX003 (ip), vehicle: Klucel (hydroxypropylcellulose) (HPC) 106 % of control

O=C(CC1(O)C(=O)Nc2ccccc21)c1ccccc1 (stereo not drawn)
inactive: [3] 101 % of control | [5] 96 % of control | [7] 96 % of control

O=C(Nc1ccc([N+](=O)[O-])cc1)c1cc(N2CCCC2)ccn1
inactive: [14] 100 % of control | [15] 96 % of control | [17] 100 % of control

CC(=O)Oc1c2cccc3c(=O)c4cccc5c4-c(c23)c2c1cccc2c5=O
inactive: [21] 95 % of control | [23] 95 % of control | [24] 101 % of control

CC(C)(C(N)=O)c1ccccc1
inactive: [16] 106 % of control | [14] 103 % of control | [15] 103 % of control | [17] 100 % of control

Nc1ncnc(N)c1NC(=O)c1ccc(OCCCCOc2ccccc2)c(Cl)c1
inactive: [21] 101 % of control | [23] 102 % of control | [24] 96 % of control

O=C(N=C1C=CC(=NC(=O)c2ccccc2)C=C1)c1ccccc1
inactive: dose: 75.0 mg/kg/injection, schedule: Q04DX003 (ip), vehicle: Klucel (hydroxypropylcellulose) (HPC) 87 % of control | dose: 150.0 mg/kg/injection, schedule: Q04DX003 (ip), vehicle: Klucel (hydroxypropylcellulose) (HPC) 92 % of control | dose: 300.0 mg/kg/injection, schedule: Q04DX003 (ip), vehicle: Klucel (hydroxypropylcellulose) (HPC) 87 % of control

CCN(CC)CCN(CCO)Cc1ccccc1
inactive: [25] 98 % of control | [1] 92 % of control | [26] 96 % of control | [2] 100 % of control | [3] 98 % of control and 101 % of control

Nc1nnc(N)c2nc(-c3ccccc3)c(-c3ccccc3)nc12
inactive: [2] 101 % of control | [4] 101 % of control

N#CC(c1ccccc1)c1cccc(C(=O)O)c1 (stereo not drawn)
inactive: dose: 100.0 mg/kg/injection, schedule: Q01DX001 (ip), vehicle: carboxymethylcellulose (CMC) 105 % of control | dose: 200.0 mg/kg/injection, schedule: Q01DX001 (ip), vehicle: carboxymethylcellulose (CMC) 86 % of control | dose: 400.0 mg/kg/injection, schedule: Q01DX001 (ip), vehicle: carboxymethylcellulose (CMC) 91 % of control

CC(=O)CC(=O)C(F)(F)F.CC(=O)CC(=O)C(F)(F)F.[Mn]
inactive: dose: 25.0 mg/kg/injection, schedule: Q01DX009 (ip), vehicle: Klucel (hydroxypropylcellulose) (HPC) 106 % of control | dose: 50.0 mg/kg/injection, schedule: Q01DX005 (ip), vehicle: Klucel (hydroxypropylcellulose) (HPC) 97 % of control | [1] 106 % of control | dose: 100.0 mg/kg/injection, schedule: Q01DX005 (ip), vehicle: Klucel (hydroxypropylcellulose) (HPC) 93 % of control | [2] 106 % of control | [11] 104 % of control | [12] 96 % of control

Reference: PubChem BioAssay AID248 (DTP/NCI, 2004)
